For data set [1], the system named is EGFR phosphorylation in Ba/F3-EGFR^L858R/T790M/C797S engineered cells. Description: Cell phosphorylation inhibition effect (pEGFR ELISA). In kind it is cell-based, human. As to conditions: for inhibitory effect on EGFR phosphorylation (in words): Ba/F3-EGFR^L858R/T790M/C797S engineered cells; for IC50: Mus musculus, Ba/F3 EGFR-L858R, EGF stimulated, ELISA pY1068, read-out: Cellular pEGFR Inhibition IC50 (nM) Ba/F3-EGFR^L858R/T790M/C797S. How it is done: Cell line: BaF3 cells with stable overexpression of EGFR^T790M/C797S/L858R mutant genes, named BaF3-EGFR^T790M/C797S/L858R cells.
(§1) a) The medium was preheated in a 37° C. water bath.
(§2) b) The cryopreservation tube was taken from the liquid nitrogen tank, quickly placed in a 37° C. water bath, and melted completely within 1 minute.
(§3) c) The cell suspension was transferred to a 15 mL centrifuge tube containing a 10 mL medium and centrifuged at 1000 rpm for 4 minutes.
(§4) d) The supernatant was discarded, the cells were resuspended in a 1 mL medium and transferred to a […] culture dish containing a 10 mL medium, 20% serum and 50 ng/mL EGF were administered to the first-generation medium, and culture was conducted in a 37° C. and 5% CO2 incubator.
(§5) b) The cells in the culture dish were blown evenly with a 5 mL pipette, and 500 μL of the cells were pipetted out to be inoculated into a new […] culture dish and cultured in a 37° C. and 5% CO2 incubator.
(§6) a) The compound to be tested (10 mM stock solution) was diluted with 100% DMSO to 1 mM, and diluted with a culture solution in a 24-well plate to prepare of a working solution of 2 μM concentration.
(§7) b) The 2 μM working solution was diluted with a triple dilution method to obtain working solutions with approximate concentrations of 2 μM, 600 nM, 200 nM, 60 nM, and 20 nM.
a) The cells at the logarithmic growth phase were centrifuged at 1000 rpm for 4 minutes, resuspended with a medium (containing 10% serum), and counted.
b) The cells were inoculated into a 24-well plate with a cell density of 2 million cells/well, and placed in a 37° C. and 5% CO2 incubator for stabilization overnight.
a) The prepared compound was added to a 96-well plate, with 100 μL per well. The final concentrations were 1 μM, 300 nM, 100 nM, 30 nM, 10 nM, and 0 nM, and the final concentration of DMSO was 0.2%. A medium and 0.2% DMSO served as a blank control.
b) 100 ng/mL EGF was added at 1 hour and 45 minutes of administration. After 15 minutes of EGF treatment, the cells were collected and centrifuged to obtain the supernatant.
(5) Detection of Intracellular pEGFR Content
The content of EGFR and pEGFR in the supernatant was determined using an ELISA kit (Abcam, ab126439-EGFR (pY1068)+total EGFR Human ELISA).
(§8) The data was analyzed using GraphPad Prism 8.0 software to obtain a fitted curve of activity of the compounds. The IC50 of the compounds was fitted from nonlinear regression equation.
In general terms: An ELISA detects its analyte on a solid surface through an enzyme-linked reagent.

Data set [2] has as its system BaF3-EGFR^WT cells. Put plainly: BaF3 cell proliferation inhibition experiment (CCK-8). In kind it is cell-based. As to conditions: Mus musculus, read-out: BaF3-EGFR^WT (IC50 nM). The procedure: (§9) A. Cell line: BaF3 cells with stable overexpression of wild-type genes are named BaF3-EGFR^WT, and BaF3 cells with stable overexpression of EGFR^L858R/T790M/C797S EGFR^del19/T790M/C797S EGFR^L858R/C797S and EGFR^del19/C797S mutant genes are named BaF3-EGFR^L858R/T790M/C797S BaF3-EGFR^del19/T790M/C797S BaF3-EGFR^L858R/C797S and BaF3-EGFR^del19/C797S cells, respectively. Mediums:
as §1, §2, §3, §4, §5, §6, §7
(§10) a) The cells at the logarithmic growth phase were centrifuged at 1000 rpm for 4 minutes, resuspended with a medium (containing 10% serum and 50 ng/mL EGF), and counted.
(§11) b) The cells were inoculated into a 96-well plate with a cell density of 4000 cells/well, and placed in a 37° C. and 5% CO2 incubator for culture for 12 hours.
(§12) a) The prepared compound was added to a 96-well plate, with 100 μL per well. The final concentrations were 1 μM, 300 nM, 100 nM, 30 nM, 10 nM, and 0 nM, and the final concentration of DMSO was 0.2%. A medium served as a blank control.
(§13) b) The cells were placed in 37° C. and 5% CO2 incubator for culture for 72 hours.
(§14) (5) Cell Viability Testing
(§15) a) The 96-well cell culture plate was taken out, and 20 μL of a CCK-8 reagent (Cell Counting Kit-8, Topscience, Catalog No. C0005) was added in the dark.
(§16) b) Mixing well was conducted on a horizontal shaking table at a room temperature at 100 rpm for 5 minutes.
(§17) c) The culture plate was placed in a 37° C. constant-temperature incubator for incubation.
as §8

Data set [3] concerns BaF3-EGFR^del19/T790M/C797S cells. Described as above. The note with it: Ba/F3 EGFR-Del19/T790M/C797S, read-out: BaF3-EGFR^del19 /T790M/C797S (IC50 nM). The data set is classed as cell-based. How it is done:
as §9, §1, §2, §3, §4, §5, §6, §7, §10, §11, §12, §13, §14, §15, §16, §17, §8

The nature of data set [4]: Detection of oral plasma exposure in rats. The data set is classed as in vivo. The note with it: rat, SD rats, p.o. 10 mg/kg. How it is done:
Detection of oral plasma exposure in rats: The compounds of the present invention have good oral in-vivo exposure in rats
After a single dose of 10 mg/kg oral administration of the compound to be tested in SD rats, blood samples were collected at different time points.
Standard curve and quality control sample preparation processing: The mixed reserve solution of the compound to be tested was taken and diluted with 50% methanol water into standard working solutions containing respective compounds with concentrations of 20, 40, 100, 200, 400, 1000, 2000, 4000, 10000, and 20000 ng/mL, as well as 60, 600, and 16000 ng/mL quality control working solutions. […] of a blank matrix was taken. […] of the standard curve working solutions and the quality control working solutions were added to prepare standard curves containing respective compounds with concentrations of 1.00, 2.00, 5.00, 10.00, 20.00, 50.00, 100.00, 200.00, 500.00, and 1000.00 ng/mL, as well as quality control samples with concentrations of 3.00, 30.00, and 800.00 ng/mL, respectively. 400 μL of acetonitrile (containing internal standard Verpmil of 2 ng/mL) was added. After vortex oscillation at 700 rcf for 10 minutes, centrifugation was conducted at 3300 rcf at 4° C. for 10 minutes. The supernatant was taken for LC-MS/MS analysis.
Unknown sample preparation processing: 50 μL of the sample to be tested was taken. 400 μL of acetonitrile (containing internal standard Verpmil of 2 ng/mL) was added. After vortex oscillation at 700 rcf for 10 minutes, centrifugation was conducted at 3300 rcf and 4° C. for 10 minutes. The supernatant was taken for LC-MS/MS analysis.

Like-named read-outs stand apart in the source and are kept apart here.

The term AUC(0-t) denotes the area under the concentration-time curve up to a stated or last time point. A higher AUC(0-t) goes with high exposure. As a reminder, the Cmax is the peak of the concentration-time curve. As usually defined, the Tmax is the time from dosing to the highest level. In general, half-life refers to the time needed for the level to fall by half in the phase considered. As for `CCc1cc(Nc2ncc(Cl)c(Nc3ccc(C)c(C)c3P(C)(C)=O)n2)c(OC)cc1N1CCC(N2C[C@H]3CC[C@@H](C2)N3C)CC1` [Compound 51, (6-((5-chloro-2-((5-ethyl-2-methoxy-4-(4-((1R,5S)-8-methyl-3,8-diazabicyclo[3.2.1]octan-3-yl)piperidin-1-yl)phenyl)amino)pyrimidin-4-yl)amino)-2,3-dimethylphenyl)dimethylphosphine oxide], in data set [1], the “inhibitory effect on EGFR phosphorylation (in words)” value was “good inhibitory effect” and the IC50 is 132 nM. In data set [2] (BaF3, 72 h), the IC50 stood at 1180 nM. Besides, in data set [3] (72 h), the IC50 was 29.9 nM. In data set [4], the area under the curve AUC(0-t) amounted to 20700 ng·h/mL, the peak concentration (Cmax) is 1220 ng/mL, the time to peak (Tmax) was 4 h and the half-life is 9.47 h.

On to `CCc1cc(Nc2ncc(Cl)c(Nc3ccc(C)c(C)c3P(C)(C)=O)n2)c(OC)cc1N1CC2(CCN(C)CC2)C1` [Compound 24, (6-((5-Chloro-2-((5-ethyl-2-methoxy-4-(7-methyl-2,7-diazaspiro[3.5]non-2-yl)phenyl)amino)pyrimidin-4-yl)amino)-2,3-dimethylphenyl)dimethylphosphine oxide], for which, in data set [1], the “inhibitory effect on EGFR phosphorylation (in words)” value is “good inhibitory effect” and the IC50 came to 150 nM. Further, the IC50 in data set [2] (BaF3, 72 h) is 5770 nM. The IC50 in data set [3] (72 h) turned out to be 128 nM. Moreover, in data set [4], the AUC(0-t) is 7870 ng·h/mL, the Cmax came out at 505 ng/mL, the Tmax came out at 9 h and the half-life is 9.48 h.

With `CCc1cc(Nc2ncc(Cl)c(Nc3ccc(C)c(C)c3P(C)(C)=O)n2)c(OC)cc1N1CCC(N2CCN(C)CC2)CC1` [Comparative Compound A, reference compound], the IC50 in data set [1] was 405 nM; in data set [2] (BaF3, cell proliferation, 72 hours), 1570 nM; in data set [3] (cell proliferation, 72 hours), 66.3 nM.

For the molecule `CCc1cc(Nc2ncc(Cl)c(Nc3ccc(C)c(C)c3P(C)(C)=O)n2)c(OC)cc1N1CCC2(CC1)CC(N(C)C)C2` [Compound 6, (6-((5-chloro-2-((4-(2-(dimethylamino)-7-azaspiro[3.5]nonan-7-yl)-5-ethyl-2-methoxyphenyl)amino)pyrimidin-4-yl)amino)-2,3-dimethylphenyl)dimethylphosphine oxide], in data set [4], the exposure AUC(0-t) was 13800 ng·h/mL, the Cmax amounted to 866 ng/mL, the time to peak (Tmax) stood at 8 h and the half-life was 9.72 h. For the same molecule, the AUC(0-inf) in data set [4] (read-out: AUCINF—obs) was found to be 17700 ng·h/mL.

These data come from US20250101052A1, “COMPOUND FOR EGFR KINASE INHIBITOR, COMPOSITION, AND USE THEREOF” (INNOVATION INSTITUTE FOR ARTIFICIAL INTELLIGENCE IN …, priority 2021, published 2025).
